Measurements reported in article PMC12867150, “A fungi-derived cyclic peptide enhances Th9-mediated antitumor immunity by targeting ZAP70 and SREBP1” (The Journal of Clinical Investigation, 2025).
Values joined by “and” are separate entries in the source; they are usually repeats but may differ in a detail not shown here. Equal entries are not always repeated.

Columns and labels:
[1] = tested on: transferred CD45.1+ OT-II Th9 cells; test: Flow cytometry of transferred CD45.1+ OT-II Th9 cells in spleen, LN, tumor (Figure 2B-C, S1C-E); assay type: in vivo, mouse; conditions: for Frequencies of transferred CD45.1⁺ OT-II Th9 cells among CD45⁺ cells in LN: Supplemental Figure 1D left; for number of transferred CD45.1⁺ OT-II Th9 cells among CD45⁺ cells in LN: Supplemental Figure 1D right; for CD45.1+ gate number: representative flow plot
Procedure: C57BL/6 mice were subcutaneously injected with 5 × 10^5 B16-OVA melanoma cells. Five days after tumor implantation, mice received an intravenous infusion of 2 × 10^6 in vitro–differentiated Th9 cells (cultured for 5 days), which were derived from OT-II CD45.1 donor mice, accompanied by 4 × 10^5 OVA peptide–pulsed DCs via the tail vein. To enhance T cell engraftment and facilitate lymphodepletion, a single intraperitoneal injection of cyclophosphamide (200 mg/kg, Sigma, catalog C0768) was administered 1 day prior to T cell transfer. Mice were euthanized at designated time points for the collection and analysis of spleens, tumor-draining lymph nodes, and tumor tissues.
Details regarding staining panels (human and mouse), reagents (including clones and catalog numbers), acquisition settings, compensation/controls, and analysis procedures are provided in Supplemental Methods.
BioLegend, Cat. No. 422301 or Mouse TruStain FcX™, BioLegend, Cat. No. 101319) for 10 minutes at 4°C. For surface marker detection, cells were stained with fluorochrome-conjugated monoclonal antibodies in 96-well V-bottom plates and incubated on ice for 30 minutes. After staining, cells were washed twice and resuspended in FACS buffer for analysis.
Prior to intracellular cytokine staining, cells were restimulated for 4 hours with PMA (Absin, Cat. No. abs9107), ionomycin (Sigma-Aldrich, Cat. No. I0634), and brefeldin A (MedChemExpress, Cat. No. HY-16592). For intracellular cytokine staining, cells were first surface-stained as described above, then fixed and permeabilized using the BD Cytofix/Cytoperm™ kit (BD Biosciences, Cat. No. 554714) according to the manufacturer ’s protocol. Intracellular proteins were stained with directly conjugated antibodies targeting IL-9, IL-17a, IL-4, IFN-γ, TNF-α, FOXP3, p-ZAP70, Perforin, and […]
Antibodies used for mouse samples included those against IL-9 (PE, clone RM9A4, Biolegend, Cat. No. 514104), IFN-γ (PE, clone XMG1.2, Biolegend, Cat. No.
Cat. No. 103138), CD4 (APC/Cy7, clone E-AB-F1353UJ, Elabscience, Cat. No.
AF18028), CD8α (PerCP/Cy5.5, clone E-AB-F1104UJ, Elabscience, Cat. No. […]
clone E-AB-F1187UH, Elabscience, Cat. No. AF19854), TNF-α (BV421, clone MP6-XT22, Biolegend, Cat. No. 506328), FOXP3 (PE, clone FJK-16s, eBioscience, Cat. No.
Perforin (APC, clone S16009A, Biolegend, Cat. No. 154303) and Granzyme B (APC, […]
clone QA16A02, Biolegend, Cat. No. 372203). […]
Figure S1. EpA enhances immune responses. […]
Representative flow-cytometric plots showing transferred CD45.1⁺ OT-II Th9 cells in spleens (C), tumor-draining lymph nodes (LNs) (D), and tumors (E); frequencies Figure S1 and absolute numbers of CD45.1⁺ OT-II Th9 cells in LNs are quantified in (D). (F– […]
Statistical analysis was performed using two-way ANOVA with Tukey’s post hoc test (A), one-way ANOVA with Tukey’s post hoc test (B) or two-tailed unpaired Student’s t-test (D and G–M). ns, not significant. *p < 0.05, **p < 0.01, ****p < 0.0001.
(also on this page, place not known: Mouse weight (g) CtrlEpA CtrlEpA CtrlEpA0 I CD45.1+ T cells (%) CtrlEpA CD4+ T cells (%) CtrlEpA CtrlEpA CtrlEpA FSC CD8 CD8 FSC FSC FSC BNumber of CD45.1+ T cells (×103 per mgĎ Number of CD4+ T cells (×104 per mgĎ DC (%)NK cells (%) NK cells (%) DC (%) Number of DC (×103 per mg) Number of NK cells (×105) Number of NK cells (×103 per mg) Number of DC (×105) FSC FSC FSC CD8 CtrlEpA CtrlEpA CtrlEpA CD8+ T cells (%) Number of CD8+ T cells (×104 per mgĎ nsns ns nsns ns 40 IL-6 (pg/ml)) […]

[2] = tested on: gene sets in Th9 cells; test: GSEA / pathway enrichment of RNA-seq data; assay type: cell-based, mouse; conditions: result in words
Procedure: GSEA was performed using the clusterProfiler R package (v4.12.6), with curated gene sets obtained from the Gene Ontology and Kyoto Encyclopedia of Genes and Genomes databases. Enrichment plots were generated using the GseaVis R package (v0.1.0) to facilitate data visualization.

[3] = spleens, individual mice, n = 4

anteiso-C15 Leu7 surfactin [EpA]
Frequencies of transferred CD45.1⁺ OT-II Th9 cells among CD45⁺ cells in LN ([1]; LN, replicate 1): 25.5%
Frequencies of transferred CD45.1⁺ OT-II Th9 cells among CD45⁺ cells in LN ([1]; LN, replicate 2): 16.2%
Frequencies of transferred CD45.1⁺ OT-II Th9 cells among CD45⁺ cells in LN ([1]; LN, replicate 3): 15.5%
Frequencies of transferred CD45.1⁺ OT-II Th9 cells among CD45⁺ cells in LN ([1]; LN, replicate 4): 16.6%
number of transferred CD45.1⁺ OT-II Th9 cells among CD45⁺ cells in LN ([1]; LN, replicate 1): 12444.4
number of transferred CD45.1⁺ OT-II Th9 cells among CD45⁺ cells in LN ([1]; LN, replicate 2): 12569.8
number of transferred CD45.1⁺ OT-II Th9 cells among CD45⁺ cells in LN ([1]; LN, replicate 3): 11818.2
number of transferred CD45.1⁺ OT-II Th9 cells among CD45⁺ cells in LN ([1]; LN, replicate 4): 11251.4
CD45.1+ gate number ([1]; LN, Figure S1D): 15.5%
CD45.1+ gate number ([1]; Spleen, Figure S1C): 11.7%
CD45.1+ gate number ([1]; Tumor, Figure S1E): 6.7%
expansion of transferred cells ([1]; lymph nodes, result in words): moderately in the lymph nodes
expansion of transferred cells ([1]; spleen, result in words): expanded robustly in the spleen
Total CD45.1(%) among CD45+ cells [1, 3]: 11.1% and 9.13% and 7.88% and 11.8%
number of CD45.1+ T cells [1, 3]: 854404 and 834158 and 848241 and 1565169
CD45.1 (%) among CD4+ cells ([1]; tumors, individual mice, n = 4): 6.68% and 1.49% and 0.81% and 0.8%
number of CD45.1+ OT-II Th9 cells ([1]; tumors, individual mice, n = 4): 16 and 22 and 24 and 15
absolute number of transferred cells ([1]; tumors, result in words): markedly increased
frequency of transferred cells ([1]; tumors, result in words): remained comparable
glycolytic and carbon metabolism pathways [2]: significant enrichment
lipid-related pathways [2]: markedly downregulated
oxidative phosphorylation-related gene sets [2]: upregulation
